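Grown in 96-well plates, cells were treated for 48 hours with each compound at five concentrations. Insufficient inhibition: endpoint recorded as highest concentration tested. Here, GI50 denotes the concentration required for 50% inhibition of growth.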 Active and inactive are the calls of the source. Cut-off read from the data, not from the text of the source: active = GI50 up to about 1.1 µM and inactive = higher.
Tests used:
Assay in all cases: NCI anticancer screen, dose series, 48 h
[1] = test system: A549
[2] = test system: BT-549
[3] = test system: EKVX
[4] = test system: HOP-92
[5] = test system: LOX IMVI
[6] = test system: MDA-MB-435
[7] = test system: MOLT-4
[8] = test system: Malme-3M
[9] = test system: NCI-H23
[10] = test system: NCI-H522
[11] = test system: OVCAR-3
[12] = test system: OVCAR-5
[13] = test system: PC-3
[14] = test system: RXF 393
[15] = test system: SK-MEL-28
[16] = test system: SK-OV-3
[17] = test system: SW-620
[18] = test system: TK-10
[19] = test system: UACC-257
[20] = test system: A498

Structure (SMILES) | GI50 [1] | GI50 [2] | GI50 [3] | GI50 [4] | GI50 [5] | GI50 [6] | GI50 [7] | GI50 [8] | GI50 [9] | GI50 [10] | GI50 [11] | GI50 [12] | GI50 [13] | GI50 [14] | GI50 [15] | GI50 [16] | GI50 [17] | GI50 [18] | GI50 [19] | GI50 [20]
CCOc1nc2c(N3CCCC3)nc(N3CCNCC3)nc2nc1NCc1ccccc1 | 1.74 µM (inactive) | 1.61 µM (inactive) | 2.1 µM (inactive) | 1.13 µM (inactive) | 1.36 µM (inactive) | 1.34 µM (inactive) | 1.09 µM (active) | 1.89 µM (inactive) | 1.51 µM (inactive) | 0.82 µM (active) | 0.887 µM (active) | 4.14 µM (inactive) | 1.46 µM (inactive) | 1.03 µM (active) | 1.79 µM (inactive) | 1.57 µM (inactive) | 1.73 µM (inactive) | 1.9 µM (inactive) | 1.74 µM (inactive) | 
O=C(O)CCCOc1cc(-c2ccccc2F)nc2cc3c(cc12)OCO3 | 5.77 µM (inactive) | 29.8 µM (inactive) | > 100 µM (inactive) | 13 µM (inactive) | 4.51 µM (inactive) | 3.18 µM (inactive) | 5.9 µM (inactive) | 7.38 µM (inactive) | 44.9 µM (inactive) |  |  | 8.32 µM (inactive) | 3 µM (inactive) |  | 7.89 µM (inactive) | 6.11 µM (inactive) | 6.07 µM (inactive) | > 100 µM (inactive) |  | 
Cn1c(=O)c2c(nc3n(Cc4ccccc4)c(=O)c(NCCBr)cn23)n(C)c1=O | 29.6 µM (inactive) | 28.4 µM (inactive) | 18.5 µM (inactive) | 12 µM (inactive) | 28.4 µM (inactive) | 49.5 µM (inactive) | 45.6 µM (inactive) |  | 40.4 µM (inactive) | 22.2 µM (inactive) | 19.1 µM (inactive) | 28.4 µM (inactive) | 20.1 µM (inactive) | 14.9 µM (inactive) | 53.5 µM (inactive) | 25.3 µM (inactive) | 90.6 µM (inactive) | 16.3 µM (inactive) | 25.7 µM (inactive) | 34.9 µM (inactive)
CC1(CCCC2(C)CCNC2=O)OCCO1 (stereo not drawn) | > 10 µM (inactive) | > 10 µM (inactive) | > 10 µM (inactive) |  | > 10 µM (inactive) | > 10 µM (inactive) | > 10 µM (inactive) | > 10 µM (inactive) | > 10 µM (inactive) |  | > 10 µM (inactive) | > 10 µM (inactive) | > 10 µM (inactive) | > 10 µM (inactive) | > 10 µM (inactive) | > 10 µM (inactive) | > 10 µM (inactive) | > 10 µM (inactive) | > 10 µM (inactive) | > 10 µM (inactive)
O=c1onc2n1-c1ccc(Cl)cc1C(=S)N1CSCC21 (stereo not drawn) | 34.8 µM (inactive) | 20.5 µM (inactive) | 29.6 µM (inactive) |  | 31.5 µM (inactive) | 9.46 µM (inactive) | 30.1 µM (inactive) | 47.3 µM (inactive) |  | 21.9 µM (inactive) | 38.8 µM (inactive) | 31.3 µM (inactive) | 31.4 µM (inactive) | 33.6 µM (inactive) | 52.5 µM (inactive) | 19.4 µM (inactive) | 20.7 µM (inactive) | 70.5 µM (inactive) | > 100 µM (inactive) | 23.1 µM (inactive)
Cc1n[n+](CC(=O)c2ccccc2)c2sc(N)nn12 | 96.8 µM (inactive) | > 100 µM (inactive) | > 100 µM (inactive) |  | > 100 µM (inactive) | > 100 µM (inactive) | > 100 µM (inactive) | > 100 µM (inactive) | > 100 µM (inactive) | > 100 µM (inactive) | > 100 µM (inactive) | > 100 µM (inactive) | > 100 µM (inactive) | > 100 µM (inactive) | > 100 µM (inactive) | > 100 µM (inactive) | > 100 µM (inactive) | > 100 µM (inactive) | > 100 µM (inactive) | > 100 µM (inactive)
CC(=O)Nc1ccc(S(=O)(=O)Nc2nc(-c3ccc(Cl)cc3)cc(N3N=C(c4ccc(Br)cc4)CC3c3ccccc3)n2)cc1 (stereo not drawn) | 17.7 µM (inactive) | 17.8 µM (inactive) | 13.6 µM (inactive) | 13.7 µM (inactive) | 15.9 µM (inactive) | 7.45 µM (inactive) | 17 µM (inactive) | 16.1 µM (inactive) | 16.6 µM (inactive) | 14.8 µM (inactive) | 2.06 µM (inactive) | 14.3 µM (inactive) | 14 µM (inactive) | 13.8 µM (inactive) | 18.6 µM (inactive) | 15.8 µM (inactive) | 20.4 µM (inactive) | 14 µM (inactive) | 17.5 µM (inactive) | 
COCn1cnc2c(=O)n(-c3ccc(OC)cc3)c(=S)n(-c3ccc(OC)cc3)c21 | > 100 µM (inactive) | > 100 µM (inactive) | > 100 µM (inactive) |  | > 100 µM (inactive) | > 100 µM (inactive) | > 100 µM (inactive) |  | > 100 µM (inactive) | > 100 µM (inactive) | > 100 µM (inactive) | > 100 µM (inactive) | > 100 µM (inactive) | > 100 µM (inactive) | > 100 µM (inactive) | > 100 µM (inactive) | > 100 µM (inactive) | > 100 µM (inactive) | > 100 µM (inactive) | > 100 µM (inactive)
CCCCCCCCOc1ccc(/C=C/C2=[N+](CCO)CCO2)cc1 | 2.7 µM (inactive) | 3.44 µM (inactive) | 3.94 µM (inactive) | 2.34 µM (inactive) |  | 3.52 µM (inactive) | 3.65 µM (inactive) | 3.04 µM (inactive) | 2.23 µM (inactive) | 2.02 µM (inactive) | 3.15 µM (inactive) | 9.42 µM (inactive) | 2.94 µM (inactive) | 1.8 µM (inactive) | 4.53 µM (inactive) | 2.54 µM (inactive) | 2.43 µM (inactive) | 3.36 µM (inactive) | 3.38 µM (inactive) | 2.9 µM (inactive)
Cc1ccsc1/C=N/Nc1ccccn1 | 7.4 µM (inactive) | > 100 µM (inactive) | 15.2 µM (inactive) | 49.3 µM (inactive) | 37.2 µM (inactive) | 50.6 µM (inactive) | 32.8 µM (inactive) | 34.8 µM (inactive) | 70.6 µM (inactive) |  | 47.5 µM (inactive) | > 100 µM (inactive) | 39.5 µM (inactive) | > 100 µM (inactive) | 98.6 µM (inactive) | > 100 µM (inactive) | 74.3 µM (inactive) | 57.3 µM (inactive) | 54.2 µM (inactive) | 55 µM (inactive)
COc1ccc(/C=C2\CN(C)Cc3c2nc(O)c(C#N)c3-c2ccc(OC)cc2)cc1 | 44.6 µM (inactive) | > 100 µM (inactive) | > 100 µM (inactive) | 25.2 µM (inactive) | 92.7 µM (inactive) | > 100 µM (inactive) | 42 µM (inactive) | 12.5 µM (inactive) | > 100 µM (inactive) | 48.8 µM (inactive) | 54.1 µM (inactive) | > 100 µM (inactive) | 44.4 µM (inactive) | 24.3 µM (inactive) | > 100 µM (inactive) | 38.1 µM (inactive) | > 100 µM (inactive) | 43.4 µM (inactive) | > 100 µM (inactive) | 
O=[N+]([O-])C(=C(Nc1ccccc1)Nc1ccccc1)/C(Cl)=C(\Cl)[N+](=O)[O-] | 10.8 µM (inactive) | 3.71 µM (inactive) | 5.62 µM (inactive) |  | 2.92 µM (inactive) | 3.26 µM (inactive) | 2.43 µM (inactive) | 3.54 µM (inactive) | 3.04 µM (inactive) |  | 2.82 µM (inactive) | 8.13 µM (inactive) | 5.65 µM (inactive) | 1.89 µM (inactive) | 3.62 µM (inactive) | 20.3 µM (inactive) | 2.19 µM (inactive) | 5.16 µM (inactive) | 5.97 µM (inactive) | 19.7 µM (inactive)
ClC(Cl)(Cl)C(N1CCN(c2ccccc2)CC1)N1CCN(c2ccccc2)CC1 | > 100 µM (inactive) | > 100 µM (inactive) | > 100 µM (inactive) | > 100 µM (inactive) | > 100 µM (inactive) | > 100 µM (inactive) | > 100 µM (inactive) | > 100 µM (inactive) |  | > 100 µM (inactive) |  | > 100 µM (inactive) | > 100 µM (inactive) | > 100 µM (inactive) | > 100 µM (inactive) |  |  | > 100 µM (inactive) | > 100 µM (inactive) | > 100 µM (inactive)
O=C1CCCCCCCCCCC1CN(Cc1ccccc1)Cc1ccccc1 (stereo not drawn) | 40.7 µM (inactive) | 50.7 µM (inactive) | 36.1 µM (inactive) | 78.2 µM (inactive) | 22.9 µM (inactive) | 37.1 µM (inactive) | 17.3 µM (inactive) | 29.4 µM (inactive) | 32.2 µM (inactive) | 41.3 µM (inactive) | 44.5 µM (inactive) | > 100 µM (inactive) | 30.9 µM (inactive) | 15.4 µM (inactive) | 37.7 µM (inactive) | 54 µM (inactive) | 45.6 µM (inactive) | > 100 µM (inactive) | 32.2 µM (inactive) | 
Cc1ccc2c(=O)c(-c3nnsn3)c[nH]c2n1 | > 100 µM (inactive) | > 100 µM (inactive) | > 100 µM (inactive) |  | > 100 µM (inactive) | > 100 µM (inactive) | > 100 µM (inactive) | > 100 µM (inactive) | > 100 µM (inactive) | > 100 µM (inactive) | > 100 µM (inactive) | > 100 µM (inactive) | > 100 µM (inactive) | > 100 µM (inactive) | > 100 µM (inactive) |  | > 100 µM (inactive) | > 100 µM (inactive) | > 100 µM (inactive) | > 100 µM (inactive)

— ChEMBL document CHEMBL1201862, “PubChem BioAssay data set” (2004)
